According to ChEMBL document CHEMBL6115030, “Systematic All-Hydrocarbon Stapling Analysis for Cecropin A Generates a Potent and Stable Antimicrobial Peptide” (J Med Chem, 2025):
Active and inactive are the calls of the source. No cut-off for these calls is given here. Bridge positions count the residues as written; N and C are the ends. Square brackets hold non-standard residues; d marks the D form. Peptide text beside a SMILES is read from it. * marks the point of attachment. X1 = CC[C@H](C)CCCCC(=O)*; dDab = NCC[C@@H](N)C(=O)O; Dab = NCC[C@H](N)C(=O)O

How the values were obtained:
Escherichia coli [1] = experiment: In vivo antibacterial activity against Escherichia coli intraperitoneally injected into C57BL/6 mouse peritonitis model assessed as mouse survival at 2.5 mg/kg, ip measured after 48 hrs relative to control; assay type: functional
Mus musculus [2] = experiment: In vivo anti-inflammatory efficacy in Escherichia coli intraperitoneally injected into C57BL/6 mouse peritonitis model assessed as reduction in IL-1beta level in blood at 2.5 mg/kg, ip measured after 48 hrs by ELISA; assay type: functional, organism-based
Escherichia coli [3] = experiment: In vivo antibacterial activity against Escherichia coli intraperitoneally injected into C57BL/6 mouse peritonitis model assessed as reduction in bacterial load in liver at 2.5 mg/kg, ip measured after 48 hrs relative to control; assay type: functional, organism-based
Escherichia coli [4] = experiment: In vivo antibacterial activity against Escherichia coli intraperitoneally injected into C57BL/6 mouse peritonitis model assessed as reduction in bacterial load in lung at 2.5 mg/kg, ip measured after 48 hrs relative to control; assay type: functional, organism-based
Escherichia coli [5] = experiment: In vivo antibacterial activity against Escherichia coli intraperitoneally injected into C57BL/6 mouse peritonitis model assessed as reduction in bacterial load in spleen at 2.5 mg/kg, ip measured after 48 hrs relative to control; assay type: functional, organism-based
Mus musculus [6] = experiment: In vivo anti-inflammatory efficacy in Escherichia coli intraperitoneally injected into C57BL/6 mouse peritonitis model assessed as reduction in IL-6 level in blood at 2.5 mg/kg, ip measured after 48 hrs by ELISA; assay type: functional, organism-based
Mus musculus [7] = experiment: In vivo anti-inflammatory efficacy in Escherichia coli intraperitoneally injected into C57BL/6 mouse peritonitis model assessed as reduction in TNF-alpha level in blood at 2.5 mg/kg, ip measured after 48 hrs by ELISA; assay type: functional, organism-based
Escherichia coli [8] = experiment: In vivo antibacterial activity against Escherichia coli intraperitoneally injected into C57BL/6 mouse peritonitis model assessed as reduction in bacterial load in kidney at 2.5 mg/kg, ip measured after 48 hrs relative to control; assay type: functional, organism-based
Escherichia coli [9] = experiment: In vivo antibacterial activity against Escherichia coli intraperitoneally injected into C57BL/6 mouse peritonitis model assessed as reduction in bacterial load in blood at 2.5 mg/kg, ip measured after 48 hrs relative to control; assay type: functional, organism-based
[10] = Toxicity in C57BL/6 female mouse assessed as juxtaglomerular cells and interstitial fibrous tissues in kidney at 25 mg/kg, ip measured during 14 days of study by H and E staining based analysis; assay type: organism-based; conditions: in vivo, 336 h, time 14 day
[11] = Toxicity in C57BL/6 mouse assessed as death at 50 mg/kg, ip measured on day 4; assay type: organism-based; conditions: in vivo, 96 h, time 4 day
[12] = Toxicity in C57BL/6 female mouse assessed as haemorrhagic point and blurred white pulp boundary in liver at 25 mg/kg, ip measured during 14 days of study by H and E staining based analysis; assay type: organism-based; conditions: in vivo, 336 h, time 14 day
[13] = Toxicity in C57BL/6 mouse assessed as death at 25 mg/kg, ip measured during 14 days of study; assay type: organism-based; conditions: in vivo, 336 h, time 14 day
[14] = Toxicity in C57BL/6 female mouse assessed as haemorrhagic point and blurred white pulp boundary in spleen at 25 mg/kg, ip measured during 14 days of study by H and E staining based analysis; assay type: organism-based; conditions: in vivo, 336 h, time 14 day
[15] = Stability of the compound in human serum assessed as retention time by RP-HPLC analysis; assay type: ADME, cell-free
[16] = Toxicity in C57BL/6 female mouse assessed as apparent inflammatory exudates ([…], neutrophiles, macrophages) in lungs at 25 mg/kg, ip measured during 14 days of study by H and E staining based analysis; assay type: organism-based; conditions: in vivo, 336 h, time 14 day
[17] = Stability of the compound in human serum assessed as remaining peptide by RP-HPLC analysis; assay type: ADME, cell-free
Staphylococcus aureus = experiment: Antibacterial activity against Staphylococcus aureus ATCC 25923 assessed as inhibition of bacterial growth measured after 24 hrs by broth microdilution method; assay type: functional
[18] = Hemolytic activity in human RBC assessed as hemolysis incubated for 1 hr by microplate reader; assay type: toxicity, cell-based, Erythrocyte; conditions: red blood cells
Cell membrane = experiment: Induction of Outer membrane damage in Escherichia coli assessed as irregular collapsed and rough surface membrane at 5 uM measured after 24 hrs by SEM imaging analysis
Pseudomonas aeruginosa = experiment: Antibacterial activity against Pseudomonas aeruginosa PAO1 assessed as inhibition of bacterial growth measured after 24 hrs by broth microdilution method; assay type: functional
[19] = Toxicity in C57BL/6 mouse assessed as increase in body weight at 25 mg/kg, ip measured during 14 days of study; assay type: organism-based; conditions: in vivo, 336 h, time 14 day
[20] = Stability of the compound in human serum assessed as peptide degradation by RP-HPLC analysis; assay type: ADME, cell-free; conditions: read-out: T50 (converted)
Klebsiella pneumoniae = experiment: Antibacterial activity against Klebsiella pneumoniae ATCC 13883 assessed as inhibition of bacterial growth measured after 24 hrs by broth microdilution method; assay type: functional

Row | Molecule | Activity (Escherichia coli [1]) [%] | Activity (Mus musculus [2]) | Activity (Escherichia coli [3]) | Activity (Escherichia coli [4]) | Activity (Escherichia coli [5]) | Activity (Mus musculus [6]) | Activity (Mus musculus [7]) | Activity (Escherichia coli [8]) | Activity (Escherichia coli [9]) | also measured
1 | CC(C)CCCCC(=O)N[C@@H](CCN)C(=O)N[C@H](C(=O)N[C@@H](CCN)C(=O)N[C@H]1CCNC(=O)[C@H]([C@@H](C)O)NC(=O)[C@H](CCN)NC(=O)[C@H](CCN)NC(=O)[C@H](CC(C)C)NC(=O)[C@@H](Cc2ccccc2)NC(=O)[C@H](CCN)NC1=O)[C@@H](C)O.CC[C@H](C)CCCCC(=O)N[C@@H](CCN)C(=O)N[C@H](C(=O)N[C@@H](CCN)C(=O)N[C@H]1CCNC(=O)[C@H]([C@@H](C)O)NC(=O)[C@H](CCN)NC(=O)[C@H](CCN)NC(=O)[C@H](CC(C)C)NC(=O)[C@@H](Cc2ccccc2)NC(=O)[C@H](CCN)NC1=O)[C@@H](C)O (X1-[Dab]T[Dab][Dab][Dab][dF]L[Dab][Dab]T; lactam 4-C) | 100 |  |  |  |  |  |  |  |  | 
2 | CC(C)CCCCC(=O)N[C@@H](CCN)C(=O)N[C@H](C(=O)N[C@@H](CCN)C(=O)N[C@H]1CCNC(=O)[C@H]([C@@H](C)O)NC(=O)[C@H](CCN)NC(=O)[C@H](CCN)NC(=O)[C@H](CC(C)C)NC(=O)[C@@H](Cc2ccccc2)NC(=O)[C@@H](CCN)NC1=O)[C@@H](C)O.CC[C@H](C)CCCCC(=O)N[C@@H](CCN)C(=O)N[C@H](C(=O)N[C@@H](CCN)C(=O)N[C@H]1CCNC(=O)[C@H]([C@@H](C)O)NC(=O)[C@H](CCN)NC(=O)[C@H](CCN)NC(=O)[C@H](CC(C)C)NC(=O)[C@@H](Cc2ccccc2)NC(=O)[C@@H](CCN)NC1=O)[C@@H](C)O (X1-[Dab]T[Dab][Dab][dDab][dF]L[Dab][Dab]T; lactam 4-C) |  | Active | Active | Active | Active | Active | Active | Active | Active | 
3 | Ac-KWKLFKKIEKVGQNIRDGIIKAGPAVAVVGQATQIAK-NH2 | 50 | Active | Active | Active | Active | Active | Active | Active | Active | Activity [10]: Non-toxic; Activity [11]: Toxic; Activity [12]: Non-toxic; Activity [13]: Non-toxic; Activity [14]: Non-toxic; Retention_time [15]: 21.69 min; Activity [16]: Non-toxic; Stability [17]: > 50%; MIC (Staphylococcus aureus): > 100 µM; HC50 at 1 h [18]: 174 µM; Activity (Cell membrane): Active; MIC (Pseudomonas aeruginosa): 100 µM; Activity [19]: Toxic; half-life [20]: 2.17 h; MIC (Klebsiella pneumoniae): 12.5 µM
